From patent publication US5106762A, “Ligand-label conjugates which contain polyoxoanions of sulfur or phosphorus” (Georgetown University, priority 1990, dated 1992)

What was measured:
[1] = test system: murine monoclonal anti-DNP antibody #51; experiment: Binding of DNP-conjugates to anti-DNP-Sepharose; settings: for binding to anti-DNP-Sepharose after extensive washing (FIG. 3): 3:1 molar ratio of conjugate to immobilized antibody; for amount specifically bound to the antigen binding sites of immobilized antibody #51: after subtraction of non-specific binding to non-immune IgG-Sepharose; for DNP-Conjugate Bound / Ratio of Bound DNP-Conjugate to Immobilized IgG: binding to anti-DNP IgG1; for DNP-Conjugate Bound: applied conjugate to immobilized IgG 3.0 moles/moles, insulin conjugates 125I-labeled; for Ratio of Bound DNP-Conjugate to Immobilized IgG: applied ratio 3.0
Protocol: (§1) Fluorescence intensity was measured on a SLM 8000 fluorimeter at 490 nm excitation and 519 nm emission. Individual fluorescence standard curves with known concentrations of the different DNP-fluorescein conjugates were used to calculate the amounts of DNP-conjugates from fluorescence units. Antibodies were coupled to tresyl chloride-activated Sepharose 4B (Sigma) at a concentration of 200 ug antibody/100 mg gel according to the manufacturer's recommendation. The amount of immobilized antibody was determined using a Coomassie blue assay as described in Ahmad et al, Anal. Biochem., vol. 148, pp 533-541 (1985). Peptide and protein determinations in fluid-phase were performed by UV absorbance at 280 nm, by the bicinchoninic acid method (Smith et al, Anal. Biochem., vol. 150, pp. 76-85 (1985)) using the Pierce BCA Protein Assay Reagent (Pierce), and by the Folin-Ciocalteau method (Lowry et al, J. Biol. chem., vol. 193, pp. 265 (1951)). The A-chain of bovine insulin (oxidized to the S-sulfonate form) (Sigma), the DNP-Ins conjugate, and the DNP-Ins-Flu conjugate were radiolabeled with Na^125 I (Amersham, Arlington Heights, IL) using immobilized chloramine-T (Iodo-Beads; Pierce, Rockford, IL) (Petrella et al, J. Immunol. Methods, vol. 104, pp. 159-172 (1987)).
(§2) Specific binding of the DNP-conjugates was determined with the murine monoclonal anti-DNP antibody #51 (Stanley et al, J. Immunol. Methods, vol. 64, pp. 119-132 (1983) and Steward et al, J. Immunol. Methods, vol. 78, pp. 173-190 (1985)) coupled to tresyl chloride-activated Sepharose 4B (anti-DNP-Sepharose) The monoclonal IgG1 antibody #51 (purified from ascites) was kindly provided by Dr. M. W. Steward (Dept. of Medical Microbiology, London School of Hygiene and Tropical Medicine, London, U.K.). Nonspecific binding was measured with Sepharose 4B-immobilized non-immune mouse IgG purified from mouse serum (Jackson ImmunoResearch Laboratories, West Grove, PA) (IgG-Sepharose). After removal of buffer by vacuum filtration on a scintered glass funnel, 50 mg aliquots of Sepharose 4B-antibody matrices were transferred to plastic conical vials and incubated with ^125 I-labeled DNP-insulin A-chain-fluorescein conjugate (1.6×10^6 cpm/nmole), or ^125 I-labeled DNP-insulin A-chain conjugate without attached fluorescein residues (3.3×10^6 cpm/nmole), or non-radiolabeled DNP-Lys-Fl at a 3 to 1 molar ratio of DNP-derivative to immobilized IgG in 10 mM phosphate/150 mM NaCl, pH 7.6, overnight at 4° C. on a rocking platform. Unbound conjugate was recovered by poking a hole in the bottom of the plastic vial with a 30 gauge needle, loading the vial on the top of a glass test tube, and centrifuging. Subsequent washing steps were performed with 150 μl of 10 mM phosphate/150 mM NaCl/0.1% (v/v) Triton X-100, pH 7.6. Aliquots of the solutions collected in the bottom of the test tubes after centrifugation were assayed for radioactivity or fluorescence.

non-immune mouse IgG = experiment: Nonspecific binding of DNP-conjugates to IgG-Sepharose; settings: for DNP-Conjugate Bound / Ratio of Bound DNP-Conjugate to Immobilized IgG: binding to non-immune IgG; for DNP-Conjugate Bound: applied conjugate to immobilized IgG 3.0 moles/moles; for Ratio of Bound DNP-Conjugate to Immobilized IgG: applied ratio 3.0
Protocol: as §1, §2

[2] = test system: immobilized monoclonal anti-DNP antibody #51; experiment: Displacement of DNP-conjugates from immobilized monoclonal anti-DNP antibody by DNP-lysine; format: binding, murine; settings: for Displacement of Antibody-Bound DNP-Conjugate by DNP-Lysine: ± S.D., free DNP-lysine to antibody-bound conjugate 2.0 (DNP-Lys-Fl) or 3.4 (DNP-Ins-Fl, DNP-Ins) mole/mole
Protocol: as §2
Aliquots of anti-DNP-Sepharose (50 mg) were incubated with ^125 I-labeled DNP-insulin A-chain, or ^125 I-labeled DNP-insulin A-chain-fluorescein, or DNP-lysine-fluorescein and washed with 10 mM phosphate/150 mM NaCl/0.1% (v/v) Triton X-100, pH 7.6 , as described above in Specific and Nonspecific Binding of DNP-Conjugates. […] Displacement was determined by assaying aliquots of the solutions collected in the bottom of the test tubes after centrifugation for radioactivity or fluorescence.

[3] = Determination of fluorescence lifetime (variable frequency phase fluorimeter); format: physicochemical
Protocol: The fluorescence lifetime of the DNP-fluorescein conjugates was measured on an ISS Greg-200 variable frequency phase fluorimeter as described previously (Lakowicz et al, Biophys. J., vol. 46, pp. 463-477 (1984) and Gratton et al, Biophys. J., vol. 46, pp. 479-486 (1984)) using 1-chloro-bis-(phenylethynyl)anthracene (Aldrich) in ethanol (3.791 ns) as a reference (Thompson et al. Anal. Chem., vol. 60, pp. 670-674 (1988)). The resulting phase and modulation data for DNP-Ins-FL were fit to one, two, and three emissive components using a Simplex algorithm supplied by ISS. […] When the data were fit to a three component model, the third component was weak (<5%), poorly defined (1.1±3.2 ns), and gave no improvement in X^2. Therefore, a third component appears to be unnecessary to fit the data. Since the DNP moiety has the ability to quench the fluorescein emission, the data are best explained by two fluorescein residues being remote from and unquenched by the DNP group with the third fluorescein residue being closer and subject to quenching. In accord with this explanation is the observation that the fluorescence of the DNP-lysine-fluorescein derivative was substantially quenched as shown by its reduced quantum efficiency and subanosecond fluorescence lifetime.

| Compound | binding to anti-DNP-Sepharose after extensive washing (FIG. 3) [1] [%] | fold difference in binding of DNP-Lys-Fl versus DNP-Ins-Fl to anti-DNP-Sepharose ([1]; 3:1 molar ratio, after extensive washing) [fold] | amount specifically bound to the antigen binding sites of immobilized antibody #51 [1] | DNP-Conjugate Bound [1] [nmol] | Ratio of Bound DNP-Conjugate to Immobilized IgG [1] [moles/moles] | non-specific binding of DNP-Lys-Fl to immobilized non-immune IgG relative to DNP-Ins-Fl (non-immune mouse IgG) | DNP-Conjugate Bound (non-immune mouse IgG) [nmol] | Ratio of Bound DNP-Conjugate to Immobilized IgG (non-immune mouse IgG) [moles/moles] | Displacement of Antibody-Bound DNP-Conjugate by DNP-Lysine [2] [pmol] | fluorescence lifetime ([3]; in words) | non-specific binding of DNP-Ins-Fl relative to DNP-Lys-Fl (non-immune mouse IgG; see Table II) | efficiency of displacement by DNP-lysine relative to DNP-Ins [2] | efficiency of displacement by DNP-lysine relative to DNP-Lys-Fl ([2]; under comparable conditions) | fluorescence lifetime, shorter lifetime component ([3]; two component fit) [ns] | fraction of first lifetime component ([3]; two component fit) [%] | fraction of shorter lifetime component ([3]; two component fit) [%] | fluorescence lifetime, first component ([3]; two component fit, X^2 =1.26) [ns] |
| --- | --- | --- | --- | --- | --- | --- | --- | --- | --- | --- | --- | --- | --- | --- | --- | --- | --- |
| O=C(O)c1cc(NC(=S)N[C@@H](CCCCNc2ccc([N+](=O)[O-])cc2[N+](=O)[O-])C(=O)O)ccc1-c1c2ccc(=O)cc-2oc2cc(O)ccc12 [DNP-Lys-Fl, DNP-lysine-fluorescein, reference compound] | 62.7 | 1.6 | 0.4 mole conjugate/mole antibody | 0.37 ± 0.02 | 1.9 | three-fold higher | 1.27 ± 0.07 | 1.5 | 0.45 ± 0.14 | subanosecond |  |  |  |  |  |  |  |
| DNP-insulin A-chain-fluorescein [DNP-Ins-Fl] | 38.8 |  | 0.7 mole conjugate/mole antibody | 0.11 ± 0.03 | 1.2 |  | 0.44 ± 0.16 | 0.5 | 3.20 ± 0.70 |  | about one-third | two-fold more efficient | much more efficient | 2.068±0.150 | 64±7 | 36 | 4.091±0.177 |
| dinitrophenyl-insulin A-chain [DNP-Ins] |  |  |  | 0.11 ± 0.01 | 1.2 |  |  |  | 1.56 ± 0.01 |  |  |  |  |  |  |  |  |
